Measured values published in patent US20210269434A1, “TRICYCLIC COMPOUNDS AS INHIBITORS OF KRAS” (Incyte Corporation, priority 2020, published 2021).

Legend:
KRAS G12C = KRAS G12C (Homo sapiens, UniProt P01116, G12C); assay: GDP-GTP exchange assay (KRAS_G12C exchange); type: biochemical; conditions: bodipy-GDP loaded KRAS G12C 2.5 nM, SOS1 150 nM, GppNHp; 2 hours pre-incubation, 2 hours reaction; read-out: G12C_exchange
How it was run: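 Fluorescence exchange of bodipy-GDP for GppNHp, SOS1-driven, read at 485/520 nm; IC50 from four-parameter variable-slope fit. Both mutants used 2.5 nM final labelled protein and a 2 h compound pre-incubation. G12C reaction had 500 uM GppNHp and 150 nM SOS1 for 2 h; G12D ran 4 h.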

[1] = tested on: MIA PaCa-2 (KRAS G12C) cells; assay: Cellular pERK HTRF assay (KRAS_G12C pERK); type: cell-based, human; conditions: Homo sapiens, MIA PaCa-2, 4 hours incubation, read-out: G12C_pERK
How it was run: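 Phospho-ERK1/2 HTRF readout (665 and 620 nm) in lysed MIA PaCa-2 cells, antibodies incubated overnight at room temperature. Cells seeded the day before and treated with G12C compounds for 4 h at 37 °C; IC50 fitted to percent inhibition against log inhibitor concentration.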

Sequence of KRAS G12C (P01116 1-188 isoform P01116-2 G12C): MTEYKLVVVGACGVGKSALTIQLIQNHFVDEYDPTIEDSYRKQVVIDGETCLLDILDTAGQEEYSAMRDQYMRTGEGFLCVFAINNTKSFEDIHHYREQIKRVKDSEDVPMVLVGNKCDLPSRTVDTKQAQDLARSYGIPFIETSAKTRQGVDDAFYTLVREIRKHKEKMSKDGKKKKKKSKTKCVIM

Structure (SMILES)	IC50 (KRAS G12C)	IC50 [1]
Cc1nccn1-c1nc2c(F)c(-c3ccccc3)c(Cl)cc2c2c1nnn2[C@H]1CCN(C(=O)/C=C/CN(C)C)[C@H](CC#N)C1 [Example 153, 2-((2S,4S)-4-(8-chloro-6-fluoro-4-(2-methyl-1H-imidazol-1-yl)-7-phenyl-1H-[1,2,3]triazolo[4,5-c]quinolin-1-yl)-1-((E)-4-(dimethylamino)but-2-enoyl)piperidin-2-yl)acetonitrile]	≤ 100 nM	≤ 100 nM
C=CC(=O)N1CC[C@H](n2nnc3c(OC[C@@H]4CCCN4C)nc4c(F)c(-c5ccccc5)c(Cl)cc4c32)C[C@H]1CC#N [Example 155, 2-((2S,4S)-1-acryloyl-4-(8-chloro-6-fluoro-4-(((S)-1-methylpyrrolidin-2-yl)methoxy)-7-phenyl-1H-[1,2,3]triazolo[4,5-c]quinolin-1-yl)piperidin-2-yl)acetonitrile]	≤ 100 nM	≤ 100 nM
CC#CC(=O)N1CC[C@H](n2nnc3c(N4CC(N(C)C)C4)nc4c(F)c(-c5ccccc5C(F)(F)F)c(C)cc4c32)C[C@H]1CC#N [Example 166a, 2-((2S,4S)-1-(but-2-ynoyl)-4-(4-(3-(dimethylamino)-azetidin-1-yl)-6-fluoro-8-methyl-7-(2-(trifluoromethyl)-phenyl)-1H-[1,2,3]triazolo-[4,5-c]quinolin-1-yl)piperidin-2-yl)acetonitrile]	≤ 100 nM	≤ 100 nM
C=CC(=O)N1CC[C@H](n2nnc3c(N4CC(N(C)C)C4)nc4c(F)c(-c5c(C)c(Cl)cc6[nH]ncc56)c(C#N)cc4c32)C[C@H]1CC#N [Example 169, 1-((2S,4S)-1-acryloyl-2-(cyanomethyl)piperidin-4-yl)-7-(6-chloro-5-methyl-1H-indazol-4-yl)-4-(3-(dimethylamino)azetidin-1-yl)-6-fluoro-1H-[1,2,3]triazolo[4,5-c]quinoline-8-carbonitrile]	≤ 100 nM	≤ 100 nM
CC#CC(=O)N1CC[C@H](n2nnc3c(N4CC(N(C)C)C4)nc4c(F)c(-c5c(C)c(Cl)cc6[nH]ncc56)c(C#N)cc4c32)C[C@H]1CC#N [Example 170, 1-((2S,4S)-1-(but-2-ynoyl)-2-(cyanomethyl)piperidin-4-yl)-7-(6-chloro-5-methyl-1H-indazol-4-yl)-4-(3-(dimethylamino)azetidin-1-yl)-6-fluoro-1H-[1,2,3]triazolo[4,5-c]quinoline-8-carbonitrile]	≤ 100 nM	≤ 100 nM
C=CC(=O)N1CC[C@H](n2cnc3c(N4CC(N(C)C)C4)nc4cc(-c5cccc(Cl)c5C)c(Cl)cc4c32)C[C@H]1CC#N [Example 171, 2-((2S,4S)-1-acryloyl-4-(8-chloro-7-(3-chloro-2-methylphenyl)-4-(3-(dimethylamino)azetidin-1-yl)-1H-imidazo[4,5-c]quinolin-1-yl)piperidin-2-yl)acetonitrile]	≤ 100 nM	≤ 100 nM

Now from value to compound:

IC50 (KRAS G12C)	IC50 [1]	Structure (SMILES)
≤ 100 nM	≤ 100 nM	Cc1cccc(-c2c(C)cc3c(nc(N4CC(N(C)C)C4)c4nnn([C@H]5CCN(C(=O)/C=C/C(F)F)[C@H](CC#N)C5)c43)c2F)c1C [Example 148, 2-((2S,4S)-1-((E)-4,4-difluorobut-2-enoyl)-4-(4-(3-(dimethylamino)azetidin-1-yl)-7-(2,3-dimethylphenyl)-6-fluoro-8-methyl-1H-[1,2,3]triazolo[4,5-c]quinolin-1-yl)piperidin-2-yl)acetonitrile]
≤ 100 nM	≤ 100 nM	Cc1cccc(-c2c(Cl)cc3c(nc(N4CC(N(C)C)C4)c4ncn([C@H]5CCN(C(=O)/C=C/CF)[C@H](CC#N)C5)c43)c2F)c1C [Example 149, 2-((2S,4S)-4-(8-chloro-4-(3-(dimethylamino)azetidin-1-yl)-7-(2,3-dimethylphenyl)-6-fluoro-1H-imidazo[4,5-c]quinolin-1-yl)-1-((E)-4-fluorobut-2-enoyl)piperidin-2-yl)acetonitrile]
≤ 100 nM	≤ 100 nM	Cc1nccn1-c1nc2c(F)c(-c3ccccc3)c(Cl)cc2c2c1ncn2[C@H]1CCN(C(=O)/C=C/CN(C)C)[C@H](CC#N)C1 [Example 151, 2-((2S,4S)-4-(8-chloro-6-fluoro-4-(2-methyl-1H-imidazol-1-yl)-7-phenyl-1H-imidazo[4,5-c]quinolin-1-yl)-1-((E)-4-(dimethylamino)but-2-enoyl)piperidin-2-yl)acetonitrile]
≤ 100 nM	≤ 100 nM	Cc1nccn1-c1nc2c(F)c(-c3ccccc3)c(Cl)cc2c2c1ncn2[C@H]1CCN(C(=O)/C=C/CF)[C@H](CC#N)C1 [Example 152, 2-((2S,4S)-4-(8-chloro-6-fluoro-4-(2-methyl-1H-imidazol-1-yl)-7-phenyl-1H-imidazo[4,5-c]quinolin-1-yl)-1-((E)-4-fluorobut-2-enoyl)piperidin-2-yl)acetonitrile]
≤ 100 nM	≤ 100 nM	C=CC(=O)N1CC[C@H](n2nnc3c(N4CC(N(C)C)C4)nc4c(F)c(-c5ccccc5)c(Cl)cc4c32)C[C@H]1CC#N [Example 154, 2-((2S,4S)-1-acryloyl-4-(8-chloro-4-(3-(dimethylamino)azetidin-1-yl)-6-fluoro-7-phenyl-1H-[1,2,3]triazolo[4,5-c]quinolin-1-yl)piperidin-2-yl)acetonitrile]
≤ 100 nM	≤ 100 nM	C=CC(=O)N1CC[C@H](n2nnc3c(-n4ccnc4C)nc4c(F)c(-c5ccccc5)c(C)cc4c32)C[C@H]1CC#N [Example 156, 2-((2S,4S)-1-acryloyl-4-(6-fluoro-8-methyl-4-(2-methyl-1H-imidazol-1-yl)-7-phenyl-1H-[1,2,3]triazolo[4,5-c]quinolin-1-yl)piperidin-2-yl)acetonitrile]
≤ 100 nM	≤ 100 nM	Cc1cc2c(nc(OC[C@@H]3CCCN3C)c3nnn([C@H]4CCN(C(=O)/C=C/CN(C)C)[C@H](CC#N)C4)c32)c(F)c1-c1ccccc1C(F)(F)F [Example 158a, 2-((2S,4S)-1-((E)-4-(dimethylamino)but-2-enoyl)-4-(6-fluoro-8-methyl-4-(((S)-1-methylpyrrolidin-2-yl)methoxy)-7-(2-(trifluoromethyl)phenyl)-1H-[1,2,3]triazolo[4,5-c]quinolin-1-yl)piperidin-2-yl)acetonitrile]
≤ 100 nM	≤ 100 nM	Cc1cc2c(nc(OC[C@@H]3CCCN3C)c3nnn([C@H]4CCN(C(=O)/C=C/C(F)F)[C@H](CC#N)C4)c32)c(F)c1-c1ccccc1C(F)(F)F [Example 161a, 2-((2S,4S)-1-((E)-4,4-difluorobut-2-enoyl)-4-(6-fluoro-8-methyl-4-(((S)-1-methylpyrrolidin-2-yl)methoxy)-7-(2-(trifluoromethyl)phenyl)-1H-[1,2,3]triazolo[4,5-c]quinolin-1-yl)piperidin-2-yl)acetonitrile]
≤ 100 nM	≤ 100 nM	CC#CC(=O)N1CC[C@H](n2nnc3c(OC[C@@H]4CCCN4C)nc4c(F)c(-c5ccccc5C(F)(F)F)c(C)cc4c32)C[C@H]1CC#N [Example 162a, 2-((2S,4S)-1-(but-2-ynoyl)-4-(6-fluoro-8-methyl-4-(((S)-1-methylpyrrolidin-2-yl)methoxy)-7-(2-(trifluoromethyl)phenyl)-1H-[1,2,3]triazolo[4,5-c]quinolin-1-yl)piperidin-2-yl)acetonitrile]
